# Measurements reported in patent publication US9771351B2, “Wnt signaling inhibitor” (KYOWA HAKKO KIRIN CO., LTD., priority 2013, dated 2017).
# Tested on: T-cell factor (TCF)-luciferase reporter using Wnt pathway as index
# Assay: Inhibitory activity against TCF-luciferase reporter using Wnt pathway as index (DLD-1/TCF-Luc cells)
# Format: cell-based, human
# Details: 1 μmol/L; DLD-1/TCF-Luc cells; luciferase activity after 18 hours
# Description: Test Example 1: Inhibitory Activity Against T-Cell Factor (TCF)-Luciferase Reporter Using Wnt Pathway as Index
# The inhibitory activity of test compounds against Wnt pathway was evaluated by the following method.
# A human colorectal adenocarcinoma cell line DLD-1 (Japanese Collection of Research Bioresources) was cultured in RPMI-1640 medium (Gibco/Life Technologies, Inc.) containing 10% fetal bovine serum (Gibco/Life Technologies, Inc.), 10 mmol/L of a 4-(2-hydroxyethyl)-1-piperazineethanesulfonic acid (HEPES) buffer solution (Gibco/Life Technologies, Inc.), 1 mmol/L of a sodium pyruvate solution (Gibco/Life Technologies, Inc.), 4.5 g/L of a D-(+)-glucose solution (Sigma-Aldrich, Inc.), 100 units/mL penicillin (Gibco/Life Technologies, Inc.) and 100 μg/mL of streptomycin (Gibco/Life Technologies, Inc.) under the conditions of 37° C. and 5% carbon dioxide gas. The DLD-1 cells were seeded in a 10 cm dish, and 20 μg of a luciferase gene plasmid pGL4.27 having a TCF responsive sequence inserted therein was transfected into the cells using 10 μL of Attractene (Qiagen, Inc.) according to the protocol attached to the product. A stably expressing cell line (DLD-1/TCF-Luc) was selected using […] of hygromycin B (Wako Pure Chemical Industries Ltd.). The DLD-1/TCF-Luc cells were detached with trypsin and seeded in a 384-well plate, and a test compound was added at different concentrations. After 18 hours, the luciferase activity was measured using Steady-Glo™ Luciferase Assay System (Promega, Inc.).
# The inhibition ratio was obtained according to the following formula 1. The inhibition ratio (%) of the compound of the present invention at 1 μmol/L against the TCF-luciferase reporter using the Wnt pathway as an index is shown in Table 6. [Math. 1] Inhibition ratio (%)=100−{(luciferase activity when test compound was added)−(luciferase activity of blank)}/{(luciferase activity of control)−(luciferase activity of blank)}×100 Formula 1
row,Compound,Inhibition ratio (%) at 1 μmol/L [%]
1,"4-(3-{[1-(6-Aminopyrimido[3,4-d]pyrimidin-4-yl)piperidin-4-yl]methyl}-2-oxo-3,4-dihydroquinazolin-1(2H)-yl)picolinonitrile [Compound 33]",82
2,"N#Cc1ccccc1CN1C(=O)N(CC2CCN(c3ncnc4cc5c(cc34)OCO5)CC2)Cc2ccccc21 [Compound 3, 2-[(3-{[1-([1,3]Dioxo[4,5-g]quinazolin-8-yl)piperidin-4-yl]methyl}-2-oxo-3,4-dihydroquinazolin-1(2H)-yl)methyl]benzo nitrile]",77
3,"CNC(=O)c1ccc2c(N3CCC(CN4Cc5ccccc5N(c5cccc(C#N)c5)C4=O)CC3)ncnc2c1 [Compound 26, 4-(4-{[1-(3-Cyanophenyl)-2-oxo-1,2-dihydroquinazolin-3(4H)-yl]methyl}piperidin-1-yl)-N-methylquinazoline-7-carboxamido]",77

# Same assay, conditions: Homo sapiens; 1 μmol/L; DLD-1/TCF-Luc cells; luciferase activity after 18 hours; read-out: Inhibition ratio (%) at 1 μmol/L
row,Compound,inhibition at 1 µM [%]
1,"N#Cc1ccccc1CN1C(=O)N(CC2CCN(c3nnnc4ccccc34)CC2)Cc2ccccc21 [Compound 4, 2-[(3-{[1-(Benzo[d][1,2,3]triazin-4-yl)piperidin-4-yl]methyl}-2-oxo-3,4-dihydroquinazolin-1(2H)-yl)methyl]benzonitrile]",74
2,"COc1cc2ncnc(N3CCC(CN4Cc5ccccc5N(c5cccc(C#N)c5)C4=O)CC3)c2cc1OC [Compound 6, 3-(3-{[1-(6,7-Dimethoxyquinazolin-4-yl)piperidin-4-yl]methyl}-2-oxo-3,4-dihydroquinazolin-1(2H)-yl)benzonitrile]",76
3,"COc1cc2ncnc(N3CCC(CN4Cc5ccccc5N(c5cc(C#N)ccn5)C4=O)CC3)c2cc1OC [Compound 10, 2-(3-{[1-(6,7-Dimethoxyquinazolin-4-yl)piperidin-4-yl]methyl}-2-oxo-3,4-dihydroquinazolin-1(2H)-yl)isonicotinonitrile]",79
4,"COc1cc2ncnc(N3CCC(CN4Cc5ccccc5N(c5ccnc(C#N)n5)C4=O)CC3)c2cc1OC [Compound 11, 4-(3-{[1-(6,7-Dimethoxyquinazolin-4-yl)piperidin-4-yl]methyl}-2-oxo-3,4-dihydroquinazolin-1(2H)-yl)pyrimidine-2-carbonitrile]",87
5,"COc1cc2ncnc(N3CCC(CN4Cc5ccccc5N(c5ccnc(C(N)=O)c5)C4=O)CC3)c2cc1OC [Compound 14, 4-(3-{[1-(6,7-Dimethoxyquinazolin-4-yl)piperidin-4-yl]methyl}-2-oxo-3,4-dihydroquinazolin-1(2H)-yl)picolinamide]",76
6,"COc1cc2ncnc(N3CC(CN4Cc5ccccc5N(c5ccnc(C#N)c5)C4=O)C3)c2cc1OC [Compound 17, 4-(3-{[1-(6,7-Dimethoxyquinazolin-4-yl)azetidin-3-yl]methyl}-2-oxo-3,4-dihydroquinazolin-1(2H)-yl)picolinonitrile]",76
7,"COc1cc2ncnc(N3CCC(NC4Cc5ccccc5N(c5ccnc(C#N)c5)C4=O)CC3)c2cc1OC (stereo not drawn) [Compound 19, 4-{3-[1-(6,7-Dimethoxyquinazolin-4-yl)piperidin-4-ylamino]-2-oxo-3,4-dihydroquinolin-1(2H)-yl}picolinonitrile]",91
8,"COc1cc2ncnc(N3CCC(Cn4c(=O)c5ccccc5n(-c5cccc(C#N)c5)c4=O)CC3)c2cc1OC [Compound 20, 3-(3-{[1-(6,7-Dimethoxyquinazolin-4-yl)piperidin-4-yl]methyl}-2,4-dioxo-3,4-dihydroquinazolin-1(2H)-yl)benzonitrile]",83
9,"N#Cc1cc(N2C(=O)N(CC3CCN(c4ncnc5cnccc45)CC3)Cc3cc(F)cnc32)ccn1 [Compound 23, 4-(6-Fluoro-2-oxo-3-{[1-(pyrido[3,4-d]pyrimidin-4-yl)piperidin-4-yl]methyl}-3,4-dihydropyrido[2,3-d]pyrimidin-1(2H)-yl)picolinonitrile]",84
